The values below come from article PMC9967108 (Viruses, 2023).

The target of one experiment is main protease (Severe acute respiratory syndrome coronavirus 2, UniProt P0DTD1). Put plainly: Dissociation constant (KD) test by fluorescence titration. The experiment is classed as binding, SARS-CoV-2. The settings on record: inhibitor titration, intrinsic fluorescence, Scatchard plot.
The next experiment concerns the target SARS-CoV-2 Mpro (Severe acute respiratory syndrome coronavirus 2, UniProt P0DTD1). Put plainly: Mpro protease activity assay (IC50 test, fluorogenic substrate).

The Kd is the equilibrium constant for the complex coming apart. A higher Kd goes with a looser complex. What is called IC50 is the midpoint of a concentration-inhibition curve. A higher IC50 goes with a need for much substance. As to `Cc1ccc(CNC(=O)C2CC(n3cnnn3)CN2Cc2ccc(OCc3ccccc3)cc2)cc1` (stereo not drawn) [CB-25], on main protease, the equilibrium dissociation constant (Kd) amounted to 10.8 ± 1.32 µM. The IC50 against SARS-CoV-2 Mpro came out at 22.7 µM.
For the compound `Cc1cc(CNC(=O)Nn2cnc3ccccc32)ccc1F` [CP-1], the Kd at main protease was 5.08 ± 0.38 µM. On SARS-CoV-2 Mpro, this compound returned an IC50 of 18.5 µM.
On to `Cc1ccc(C2CC(c3cccs3)=NN2C(=O)CSc2nnc(CNC(=O)c3ccco3)n2-c2cccc(Cl)c2)cc1` (stereo not drawn) [LC24-20], for which, on main protease, binding was put at a Kd of 20 ± 1.27 µM. The compound further yielded a half-maximal inhibitory concentration (IC50) on SARS-CoV-2 Mpro of 32.9 µM.
